Reference: patent US10111956B2, “Corticosteroid compositions” (TOLMAR, Inc., priority 2013, dated 2018)

Legend:
[1] = Solubility of corticosteroid in mixtures of solvent components (procedure of Example 1); assay type: physicochemical
Protocol: (§1) The solubilities of various corticosteroids in propylene glycol (PG) monocaprylate, PG monolaurate, or isopropyl myristate were measured gravimetrically. Corticosteroid, PG monocaprylate, PG monolaurate, and/or isopropyl myristate were placed in glass vials and weighed on an analytical balance to four decimals places. Test solutions were stirred and shaken at room temperature for up to 30 minutes. Test solutions were examined at about 24 hours for clarity or non-dissolved material.

[2] = Solubility of corticosteroids in neat solvents, measured gravimetrically; assay type: physicochemical; details: for Solubility in PG Monocaprylate: neat PG monocaprylate; for Solubility in PG Monocaprylate / Solubility in PG Monolaurate / Solubility in Isopropyl Myristate: room temperature, examined at about 24 hours; for Solubility in PG Monolaurate: neat PG monolaurate; for Solubility in Isopropyl Myristate: neat isopropyl myristate; for times more soluble in PG monocaprylate than in isopropyl myristate / times more soluble in PG monolaurate than in isopropyl myristate: ratio of Table 1 solubilities
Protocol: as §1

| Compound | Solubility in PG Monocaprylate [2] | Solubility in PG Monolaurate [2] | Solubility in Isopropyl Myristate [2] | times more soluble in PG monocaprylate than in isopropyl myristate [2] | times more soluble in PG monolaurate than in isopropyl myristate [2] | further results |
| --- | --- | --- | --- | --- | --- | --- |
| CC1(C)O[C@@H]2C[C@H]3[C@@H]4CCC5=CC(=O)C=C[C@]5(C)[C@@]4(F)[C@@H](O)C[C@]3(C)[C@]2(C(=O)CO)O1 [Triamcinolone Acetonide] | 0.65 % w/w | 0.30 % w/w | <0.04 % w/w | at least 16 times | at least 7.5 times | increase of solubility on addition of ethoxydiglycol to PG alone ([1]; 12:12:0 ethoxydiglycol:PG:PG monocaprylate versus PG alone, Example 5): 1.7 fold; Solubility ([1]; Ethoxydiglycol:PG:PG Monocaprylate 12:0:12, Table 7): 1.53 % w/w; Solubility ([1]; Ethoxydiglycol:PG:PG Monocaprylate 12:3:9, Table 7): 2.00 % w/w; Solubility ([1]; Ethoxydiglycol:PG:PG Monocaprylate 12:6:6, Table 7): 2.30 % w/w; Solubility ([1]; Ethoxydiglycol:PG:PG Monocaprylate 12:9:3, Table 7): 2.45 % w/w; Solubility ([1]; Ethoxydiglycol:PG:PG Monocaprylate 12:12:0, Table 7): 2.45 % w/w; solubility in ethoxydiglycol:PG:PG monocaprylate mixture compared with PG:PG monocaprylate mixture ([1]; FIG. 4): more soluble; solubility in PG:PG monocaprylate mixtures compared with expected solubility (dashed line) ([1]; FIG. 4, each tested mixture containing both PG and PG monocaprylate): more soluble in the mixture than expected; Solubility ([1]; PG:PG Monocaprylate 0:100 (PG monocaprylate alone), Table 6): 0.60 % w/w; Solubility ([1]; PG:PG Monocaprylate 25:75, Table 6): 1.25 % w/w; Solubility ([1]; PG:PG Monocaprylate 50:50, Table 6): 1.60 % w/w; Solubility ([1]; PG:PG Monocaprylate 75:25, Table 6): 1.50 % w/w; Solubility ([1]; PG:PG Monocaprylate 90:10, Table 6): 1.15 % w/w; Solubility ([1]; PG:PG Monocaprylate 100:0 (PG alone), Table 6): 0.90 % w/w; Solubility in PG Monolaurate ([2]; listed as triamcinolone acetonide): 0.3 % w/w |
| CCC(=O)O[C@]1(C(=O)SCF)[C@H](C)C[C@H]2[C@@H]3C[C@H](F)C4=CC(=O)C=C[C@]4(C)[C@@]3(F)[C@@H](O)C[C@@]21C [Fluticasone Propionate] | 0.3 % w/w | – | <0.03 % w/w | 10 times | – | – |
| CCCC(=O)O[C@]1(C(=O)CO)CC[C@H]2[C@@H]3CCC4=CC(=O)CC[C@]4(C)[C@H]3[C@@H](O)C[C@@]21C [Hydrocortisone Butyrate] | 2.0 % w/w | 1.35 % w/w | 0.10 % w/w | 20 times | 13.5 times | – |
| CC1(C)O[C@@H]2C[C@H]3[C@@H]4CCC5=CC(=O)C=C[C@]5(C)[C@H]4[C@@H](O)C[C@]3(C)[C@]2(C(=O)CO)O1 [Desonide] | 1.15 % w/w | 0.40 % w/w | – | – | – | – |

Further lines, with some results ahead:

| Solubility in PG Monocaprylate [2] | Solubility in PG Monolaurate [2] | Solubility in Isopropyl Myristate [2] | times more soluble in PG monocaprylate than in isopropyl myristate [2] | times more soluble in PG monolaurate than in isopropyl myristate [2] | Compound | further results |
| --- | --- | --- | --- | --- | --- | --- |
| 4.0 % w/w | 2.30 % w/w | 0.15 % w/w | 27 times | 15.3 times | CCC(=O)OCC(=O)[C@@]1(OC(=O)CC)[C@@H](C)C[C@H]2[C@@H]3CCC4=CC(=O)C=C[C@]4(C)[C@@]3(F)[C@@H](O)C[C@@]21C [Betamethasone Dipropionate] | – |
| 4.0 % w/w | 1.80 % w/w | 0.25 % w/w | 16 times | 7.2 times | CCC(=O)O[C@]1(C(=O)CCl)[C@@H](C)C[C@H]2[C@@H]3CCC4=CC(=O)C=C[C@]4(C)[C@@]3(F)[C@@H](O)C[C@@]21C [Clobetasol Propionate] | – |
| 0.7 % w/w | – | – | – | – | C[C@@H]1C[C@H]2[C@@H]3CCC4=CC(=O)C=C[C@]4(C)[C@@]3(Cl)[C@@H](O)C[C@]2(C)[C@@]1(OC(=O)c1ccco1)C(=O)CCl [Mometasone Fuorate] | – |
